Measurements: patent US20260317546A1, “PRETARGETED BIMODAL IMAGING AGENTS” (KØBENHAVNS UNIVERSITET, priority 2023, published 2026)

Key:
[1] = system: anti-TAG72 mAb CC49 modified with TCO-tags (CC49-TCO) in LS174T tumor xenografts
Protocol: This assay employs anti-TAG72 mAb CC49 modified with TCO-tags (CC49-TCO) and [111In]In-DOTA-PEG11-BisPy-Tz (FIG. 1) with well-established performance in pretargeted imaging of TAG72 expressing LS174 tumor xenografts.
LS174T xenograft-bearing mice are injected with CC49-TCO. After allowing for accumulation for 72 h, the tetrazine to be evaluated is injected via the tail vein, followed by [111In]In-DOTA-PEG11-BisPy-Tz after 1 h. in vivo performance of the tetrazine to be evaluated can therefore be correlated to tumor uptake of [111In]In-DOTA-PEG11-BisPy-Tz after 22 h. Increased in vivo performance is reflected by lower tumor uptake (see FIG. 1).
Further, a negative control (−C) and a positive control (+C) are included.

[2] = system: TCO-modified CC49 (CC49-TCO) targeting TAG-72 in human colorectal cancer LS174T xenograft tumors; test: Pretargeted fluorescence imaging, ex vivo fluorescence measurements of selected organs; assay type: in vivo, Balb/c nude mice; conditions: TCO-modified CC49 vs non-modified CC49 (control); compound 8 i.v. 72 h after antibody, 86.5 μg, 116.7 nmol; 1 h post injection; 488 nm excitation, 525/20 emission
Protocol: Pretargeted imaging of compound 8 of Example 1 was tested in vivo.
Pretargeted imaging of compound 8 of Example 1 was tested in vivo using the monoclonal antibody CC49 targeting TAG-72 in human colorectal cancer LS174T xenograft tumors. Tumors were established in 7-8 week old Balb/c nude mice and after 10 days, the animals were injected i.v. with either 50 μg (0.33 nmol) TCO-modified CC49 (CC49-TCO, ~3.5 TCO/mAb), or non-modified CC49 (control) (n=3 per group). After 72 hours, compound 8 (~100 equivalents per TCO, 86.5 μg, 116.7 nmol) in 100 μL of PBS (pH=7.4) was injected i.v.. One hour post injection, selected organs were harvested for ex vivo fluorescence measurements using a Amersham Typhoon 5 laser scanner platform (GE healthcare Europe) using a 488 nm excitation laser and 525/20 emission filter.

| SMILES | blocking effect [1] | fluorescence in tumor (ex vivo) [2] |
| --- | --- | --- |
| CC1=CC(C)=[N+]2C1=C(c1ccnc(-c3nnc(-c4ccc(CN(CC(=O)O)CC(=O)O)cn4)nn3)c1)c1c(C)cc(C)n1[B-]2(F)F [Compound 7, 2,2′-(((6-(6-(4-(5,5-difluoro-1,3,7,9-tetramethyl-5H-4λ4,5λ4-dipyrrolo[1,2-c:2′,1′-f][1,3,2]diazaborinin-10-yl)pyridin-2-yl)-1,2,4,5-tetrazin-3-yl)pyridin-3-yl)methyl)azanediyl)diacetic acid] | 93% |  |
| CC1=CC(C)=[N+]2C1=C(c1ccc(-c3nnc(-c4ccc(CN(CC(=O)O)CC(=O)O)cn4)nn3)nc1)c1c(C)cc(C)n1[B-]2(F)F [Compound 8, 2,2′-(((6-(6-(5-(5,5-difluoro-1,3,7,9-tetramethyl-5H-4λ4,5λ4-dipyrrolo[1,2-c:2′,1′-f][1,3,2]diazaborinin-10-yl)pyridin-2-yl)-1,2,4,5-tetrazin-3-yl)pyridin-3-yl)methyl)azanediyl)diacetic acid] | 98% | higher fluorescence in tumor |
